Reference: patent US20230364032A1, “USE OF 2-HOBA TO TREAT ATHEROSCLEROSIS” (Vanderbilt University, priority 2020, published 2023)
“Also recorded” adds a separate entry of the source.

Tests used:
[1] = Body weight, water intake, diet consumption, mortality; format: in vivo; conditions: Ldlr−/− mice, western diet 16 weeks, 1 g/L; compared to vehicle or 4-HOBA
Protocol: The body weight (FIG. 8A), water intake (FIG. 8B), and diet consumption (FIG. 8C) were measured in the Ldlr^−/− mice consuming a Western diet for 16 weeks and treated with 1 g/L 2-HOBA, 4-HOBA, or vehicle. (FIG. 8D) The plasma was pooled from hypercholesterolemic Ldlr^−/− mice (4 mice/group) that were fasted for 6 hours. Fast performance liquid chromatography (FPLC) was performed using a Superose 6 column. Total cholesterol was measured by an enzymatic assay and the average is shown for two pooled plasma samples per group of mice.
Ldlr^−/− and WT on C57BL/6 background mice were obtained from the Jackson Laboratory. Animal protocols were performed according to the regulations of Vanderbilt University's Institutional Animal Care and Usage Committee. Mice were maintained on chow or a Western-type diet containing 21% milk fat and 0.15% cholesterol (Teklad). Eight week old, female Ldlr^−/− mice on a chow diet were pretreated with vehicle alone (Water) or containing either 1 g/L of 4-HOBA or 1 g/L of 2-HOBA. 4-HOBA (as hydrochloride salt) was synthesized as previously described^21. 2-HOBA (as the acetate salt, CAS 1206675-01-5) was manufactured by TSI Co., Ltd. (Missoula, MT) and obtained from Metabolic Technologies, Inc., Ames, IA^24. A commercial production lot was used (Lot 16120312), and the purity of the commercial lot was verified to be >99% via HPLC and NMR spectroscopy^24. […]

[2] = system: MDA; test: MDA-HOBA (propenal-HOBA) adducts in urine and tissues after oral gavage (LC-MS/MS); format: in vivo, mouse
Protocol: Urine samples were collected for 16 h after oral gavage of male Ldlr^−/− mice on a WD with either 2-HOBA or 4-HOBA. After 16 h, the Ldlr^−/− mice were sacrificed and the HOBA-propenal adducts in urine (14A), liver (14B), kidney (14C) and spleen (14D) were measured using LC-MS/MS as described in methods (14A-D) (Mann-Whitney test, ** indicates p<0.01 and *** indicates p<0.001).
Ldlr^−/− and WT on C57BL/6 background mice were obtained from the Jackson Laboratory. Animal protocols were performed according to the regulations of Vanderbilt University's Institutional Animal Care and Usage Committee. Mice were maintained on chow or a Western-type diet containing 21% milk fat and 0.15% cholesterol (Teklad). Eight week old, female Ldlr^−/− mice on a chow diet were pretreated with vehicle alone (Water) or containing either 1 g/L of 4-HOBA or 1 g/L of 2-HOBA. 4-HOBA (as hydrochloride salt) was synthesized as previously described^21. 2-HOBA (as the acetate salt, CAS 1206675-01-5) was manufactured by TSI Co., Ltd. (Missoula, MT) and obtained from Metabolic Technologies, Inc., Ames, IA^24. A commercial production lot was used (Lot 16120312), and the purity of the commercial lot was verified to be >99% via HPLC and NMR spectroscopy^24. After two weeks, the mice continued to receive these treatments but were switched to a western diet for 16 weeks to induce hypercholesterolemia and atherosclerosis. Similarly, 12 week-old male Ldlr^−/− mice were pretreated with vehicle alone (water) or containing 1 g/L of 2-HOBA for two weeks and were then switched to a western diet for 16 weeks to induce hypercholesterolemia and atherosclerosis, while continuing the treatment with 2-HOBA or water alone^58, 59, 60 Based on the average weight and daily consumption of water per mouse the estimated daily dosage with 1 g/L of 2-HOBA is 200 mg/Kg. […] Eight week old, male Ldlr^−/− mice were fed a western diet for 16 weeks and were continuously treated with water containing either 2-HOBA or 4-HOBA. Urine samples were collected using metabolic cages (2 mice in one cage) during 18 h after oral gavage with either 2-HOBA or 4-HOBA (5 mg each mouse).
The scavenger-MDA adducts were extracted, (1) from homogenate of tissue (equivalent of 30 mg) or (2) from cells (1 ml), three times with 500 μl of ethyl acetate. The extract was dried down, resuspended in 100 μl of ACN-water (1:1, v/v with 0.1% formic acid), vortexed, and filtered through a 0.22 μm spin X column. The reactions were analyzed by LC-EST/MS/MS using the column a Phenomenex Kinetex column at a flow rate of 0.1 ml/min. The gradient consisted of Solvent A, water with 0.2% formic acid and solvent B, acetonitrile with 0.2% formic acid. The gradient was as follows: 0-2 min 99.9% A, 2-9 min 99.9-0.1% A, 9-12 min 99.9% B. The mass spectrometer was operated in the positive ion mode, and the spray voltage was maintained at 5,000 V. Nitrogen was used for the sheath gas and auxiliary gas at pressures of 30 and 5 arbitrary units, respectively. The optimized skimmer offset was set at 10, capillary temperature was 300° C., and the tube lens voltage was specific for each compound. SRM of specific transition ions for the precursor ions at m/z 178→107 (propenal-HOBA adduct).

[3] = 16 h post oral gavage, Ldlr−/− mice

## NCc1ccccc1O [2-HOBA, 2-hydroxybenzylamine]
[1]
  body weight, water consumption, diet uptake: did not affect; also recorded: does not impact
[2]; [3]
  propenal-HOBA adducts in kidney, 2-HOBA versus 4-HOBA: 5 fold
  propenal-HOBA adducts in liver, 2-HOBA versus 4-HOBA: 3 fold
  propenal-HOBA adducts in spleen, 2-HOBA versus 4-HOBA: 11 fold
[2]; Ldlr−/− mice on WD, oral gavage
  formation of MDA-HOBA adducts in vivo: abundantly formed; also recorded: more readily formed
[2]; urine collected during 16 h after oral gavage (5 mg), Ldlr−/− mice on western diet 16 weeks
  MDA-2-HOBA versus MDA-4-HOBA (propenal-HOBA) adducts in urine: 19 fold
